The values below come from patent US9403843B2, “Cysteine protease inhibitors and uses thereof” (The Trustees of Columbia University in the City of New York, priority 2012, dated 2016).

Data set [1] has as its system Aβ-induced LTP impairment. The data set can be described thus: LTP rescue test. Particulars: assessed at 650 nM.
Procedure: Residual levels of potentiation were averaged during the last 5 min of LTP.
In a further data set the test system is APP/PS1 mice. The data set can be described thus: Behavioral rescue assays (contextual fear memory, 2-day RAWM reference memory). It counts as in vivo.
Data set [2] can be described thus: Acute and chronic toxicity, maximum tolerated dose. It counts as in vivo. The conditions noted are these: mouse, in vivo; mice; no malaise or death. The source says: For evaluation of acute and chronic toxicity we measured the maximum tolerated dose (MTD) in mice for 30a, 33 and 50.
The target of data set [3] is Full length porcine calpain (Sus scrofa (Pig), UniProt P35750). Description: Calpain inhibition kinetics studies (Suc-LLVY-AMC substrate). It is filed as biochemical.
Full length porcine calpain, sequence (P35750 whole entry): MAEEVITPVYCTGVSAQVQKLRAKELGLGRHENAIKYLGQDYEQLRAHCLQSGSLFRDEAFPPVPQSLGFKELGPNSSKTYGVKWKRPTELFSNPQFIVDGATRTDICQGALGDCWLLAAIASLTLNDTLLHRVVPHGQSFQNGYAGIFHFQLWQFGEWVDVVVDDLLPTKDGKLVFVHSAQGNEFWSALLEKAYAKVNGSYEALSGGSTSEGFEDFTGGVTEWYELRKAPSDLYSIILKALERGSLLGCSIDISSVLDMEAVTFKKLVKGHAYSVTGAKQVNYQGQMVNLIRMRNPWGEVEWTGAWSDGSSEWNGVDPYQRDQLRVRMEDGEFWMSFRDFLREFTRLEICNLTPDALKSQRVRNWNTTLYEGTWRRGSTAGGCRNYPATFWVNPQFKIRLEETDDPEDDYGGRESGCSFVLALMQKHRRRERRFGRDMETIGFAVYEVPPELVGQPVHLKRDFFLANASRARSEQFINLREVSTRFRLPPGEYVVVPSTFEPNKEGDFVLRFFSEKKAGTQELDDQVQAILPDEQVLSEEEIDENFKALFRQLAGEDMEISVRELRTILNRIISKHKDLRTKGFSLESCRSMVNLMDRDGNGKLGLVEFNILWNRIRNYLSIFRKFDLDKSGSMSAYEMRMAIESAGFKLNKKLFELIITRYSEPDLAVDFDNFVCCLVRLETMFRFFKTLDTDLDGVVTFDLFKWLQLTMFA
Full length porcine calpain, sequence (P04574 whole entry partner): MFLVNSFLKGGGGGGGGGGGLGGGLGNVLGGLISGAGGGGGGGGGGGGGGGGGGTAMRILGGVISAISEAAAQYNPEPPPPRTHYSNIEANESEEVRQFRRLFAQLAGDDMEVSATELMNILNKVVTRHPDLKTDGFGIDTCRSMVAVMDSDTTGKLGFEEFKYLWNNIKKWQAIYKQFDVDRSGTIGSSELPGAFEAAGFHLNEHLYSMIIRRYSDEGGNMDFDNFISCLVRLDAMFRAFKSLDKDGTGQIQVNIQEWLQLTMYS
The mark [4] stands for this setting: APP/PS1 mice, daily treatment from 2 until 7 months.

The MTD is the largest dose that counted as tolerated. High values mean a wide tolerated range, low ones a narrow tolerated range. Regarding `O=C(O)C1OC1C(=O)N[C@@H](Cc1cscn1)C(=O)Nc1nc(-c2ccc(F)cc2)cs1` (stereo in doubt) [Compound 33, (2S,3S)-3-((S)-1-(4-(4-fluorophenyl)thiazol-2-ylamino)-1-oxo-3-(thiazol-4-yl)propan-2-ylcarbamoyl)oxirane-2-carboxylic acid], in data set [1], the “potency for LTP rescue compared with E64” value is reported as “surpassed E64”. Further, the reference memory result with APP/PS1 mice (3 month old APP/PS1 mice, 2-day RAWM, daily from 2 months) is recorded as “beneficial”; with APP/PS1 mice (setting [4]) it was “ameliorated”. Further, the contextual fear memory entry was “beneficial” with APP/PS1 mice (3 month old APP/PS1 mice, daily i.p. from 2 months) and “ameliorated” with APP/PS1 mice (setting [4]). Moreover, in the data set with APP/PS1 mice (7 month old APP/PS1 mice, chronic administration), the memory impairment entry is “beneficial”. In data set [2], this compound had an MTD of 150 mg/kg. Besides, in data set [3] (apparent equilibrium constant, full length Cal1, read-out: K1 Calpain1), the Ki turned out to be 2600 nM. Besides, the “ki Calpain1” value in data set [3] (inhibition rate, full length Cal1) amounted to 0.08 s⁻¹. Also, in data set [3] (ki/Ki as measure, compared with E-64), the “relative selectivity for inhibition of Cal1 over papain (in words)” value is listed as “Cal1 selectivity”. Also, the “rel Calpain1” value in data set [3] (ki/Ki calculated relative to E-64) is listed as 0.98. For the same compound, in data set [3] (mean ± S.D. of triplicate experiments), the “10^−4 × ki/Ki Calpain1” value is 2.96 ± 0.14.
